Converted amounts (≈) assume the structure as drawn.
What was measured:
Format in all cases: cell-based
[1] = tested on: C3H/HeN mouse splenocytes stimulated with Concanavalin A (Con A); test: Suppressive effect on mitogenic activity of mouse splenocytes in vitro, Con A as mitogen (MTT); conditions: Con A 5 μg/ml as mitogen, 3 days
Procedure: (§1) Experiment 1 Suppressive Effect on a Mitogenic Activity of Mouse Splenocytes In Vitro
(§2) In 96-well microtiter plate 5×10^5 C3H/HeN mouse splenocytes suspended in 0.1 ml of 10% fetal bovine serum-fortified RPMI 1640 medium containing 2 mM of sodium bicarbonate, 50 units/ml of penicillin, 50 μg/ml of streptomycin and 5×10^−5 M of 2-mercaptoethanol were added. Then, 5 μg/ml of Concanavalin A (Con A) or 10 μg/ml of lipopolysaccharide (LPS) as a mitogen and the compound of a pre-determined concentration of the present invention were added to each well so that a final volume of each well reached 0.2 ml. Each compound of the present invention was dissolved in dimethylsulfoxide (DMSO) and diluted with the above RPMI 1640 medium to adjust the final concentration of 100 ng/ml or less. The splenocytes in the 96-well microtiter plate were cultivated at 37° C. for 3 days in an incubator keeping the humidity 100%, carbon dioxide 5% and air 95%. Then, 25 μl of 6 mg/ml MTT [3-(4,5-dimethylthiazol-2-yl)-2,5-diphenyltetrazolium bromide] (Sigma) was added to the each well and cultivated at 37° C. for 4 hours under the same conditions. After the cultivation, 50 μl of 0.02 N hydrochloric acid in 20% sodium dodecyl sulfate (SDS) was added to formazan generated and left at 37° C. for 24 hours for dissolving formazan. An absorption intensity (OD) of formazan generated in proportion to the number of living cells was measured with an immunoreader (InterMed) equipped with a 570 nm filter (The Journal of Immunological Method, 65, 55-63, 1983). The 50% inhibitory concentration of a cell proliferation (IC 50) was calculated from a correlation between the concentration of the compound of the present invention and the absorption intensity.

[2] = tested on: mouse thymoma strain EL4 cells; test: Anti-proliferative activity on EL4 cells (MTT); conditions: 3 days
Procedure: Experiment 2 Anti-Proliferative Activity on EL4 Cells
In 96-well microtiter plate 4×10^4/0.1 ml of mouse thymoma strain EL4 cells were added and 0.1 ml of the compound of the present invention was added to the mixture so that the concentration was in the range of 0-5,000 ng/ml. After the cultivation for 3 days, the IC50 was calculated by the MTT method as described in Experiment 1.

[3] = tested on: C3H/HeN mouse splenocytes stimulated with lipopolysaccharide (LPS); test: Suppressive effect on mitogenic activity of mouse splenocytes in vitro, LPS as mitogen (MTT); conditions: LPS 10 μg/ml as mitogen, 3 days
Procedure: as §1, §2

[4] = tested on: IL-2 production of mouse T cell strain EL-4 (TPA); test: Suppressive effect on the cytokine production of mouse T cell strain EL-4: IL-2; conditions: EL-4, TPA 10 ng/ml, 24 hours, ELISA
Procedure: (§3) Experiment 8 Suppressive Effect on the Cytokine Production of a Mouse T Cell Strain EL-4 In 48-well plate were added 2×10^5 mouse T cell strain EL-4 which were suspended in 0.2 ml of 1% fetal bovine serum-added RPMI 1640 medium (2 mM of sodium bicarbonate, 50 units/ml of penicillin, 50 μg/ml of streptomycin and 5×10^−5 M of 2-mercaptoethanol were added) and the compound of the present invention of a predetermined concentration. TPA was added as a cell stimulater at a final concentration of 10 ng/ml to adjust a final volume of each well to 0.4 ml. Each compound of the present invention was dissolved in DMSO and diluted with the above RPMI 1640 medium, and then for added at a final concentration of 100 ng/ml or less. The cells in the 48-well plate were cultivated in an incubator keeping the humidity 100%, carbon dioxide 5% and air 95% at 37° C. for 24 hours to collect a supernatant of each well. The amount of IL-2, IL-4 and IL-5 released in the medium of each well were measured with the ELISA kit (Amersham K. K.) to be taken as an index of the cytokine production of the cells. TPA free group (-TPA) was used as a control.

[5] = tested on: IL-4 production of mouse T cell strain EL-4 (TPA); test: Suppressive effect on the cytokine production of mouse T cell strain EL-4: IL-4; conditions: EL-4, TPA 10 ng/ml, 24 hours, ELISA
Procedure: as §3

[6] = tested on: IL-5 production of mouse T cell strain EL-4 (TPA); test: Suppressive effect on the cytokine production of mouse T cell strain EL-4: IL-5; conditions: EL-4, TPA 10 ng/ml, 24 hours, ELISA
Procedure: as §3

Row | Structure (SMILES) | ConA IC50 [1] [µg/mL] | EL-4 IC50 [2] [µg/mL] | LPS IC50 [3] [µg/mL] | IC50 IL-2 [4] [µg/mL] | IC50 IL-4 [5] [µg/mL] | IC50 IL-5 [6] [µg/mL]
1 | CC/C=C\COc1ccc(-c2c(OC)cc(-c3ccc(O)cc3)c(OC)c2O)cc1O [Compound I-9] | <0.02 | <0.02 | <0.02 |  |  | 
2 | COc1cc(-c2ccc(O)cc2)c(OC)c(CO)c1-c1ccc(OCC=C(C)C)c(OS(C)(=O)=O)c1 [Compound I-12] | 0.0013 | 0.0462 | 0.0028 |  |  | 
3 | CC#CCOc1ccc(-c2c(OC)cc(-c3ccc(O)cc3)c(OC)c2O)cc1O [Compound I-40] | 0.0061 | 0.0374 | 0.0165 |  |  | 
4 | COc1cc(-c2ccc(O)cc2)c(OC)c(O)c1-c1ccc(OCC=C(C)Cl)c(O)c1 [Compound I-41] | 0.00073 | 0.00489 | 0.00174 |  |  | 
5 | C=CCOc1ccc(-c2c(OC)cc(-c3ccc(O)cc3)c(OC)c2O)cc1O [Compound I-46] | 0.0106 | 0.0675 | 0.0239 |  |  | 
6 | C/C=C/COc1ccc(-c2c(OC)cc(-c3ccc(O)cc3)c(OC)c2O)cc1O [Compound I-49] | 0.00889 | 0.0317 | 0.0162 |  |  | 
7 | C/C=C\COc1ccc(-c2c(OC)cc(-c3ccc(O)cc3)c(OC)c2O)cc1O [Compound I-50] | 0.00383 | 0.0119 | 0.0092 |  |  | 
8 | COc1cc(-c2ccc3c(c2)OCO3)c(OC)c(O)c1-c1ccc(OCC=C(C)C)c(O)c1 [Compound I-62] | 0.0292 | 0.0234 | 0.025 |  |  | 
9 | COc1cc(-c2ccc(OCc3ccccc3)c(O)c2)c(OC)cc1-c1ccc(OCc2ccccc2)c(O)c1 [Compound I-63] | 0.013 | 0.016 | 0.027 |  |  | 
10 | COc1cc(-c2ccc(OCC=C(C)C)c(O)c2)c(OC)cc1-c1ccc(OCC=C(C)C)c(O)c1 [Compound I-66] | 0.00022 | 0.00048 | 0.00035 |  |  | 
11 | COc1cc(-c2ccc(O)cc2)c(OC)c(O)c1-c1ccc(OC/C=C/Br)c(O)c1 [Compound I-103] | 0.0034 | 0.0046 | 0.0037 |  |  | 
12 | COc1cc(-c2ccc(O)cc2)c(OC)c(C)c1-c1ccc(OCC=C(C)C)c(O)c1 [Compound I-106] | 0.0006 | 0.0027 | 0.0004 |  |  | 
13 | COCOc1c(OC)c(-c2ccc(OC)cc2)cc(OC)c1-c1ccc(OCc2ccccc2)c(O)c1 [Compound I-107] | 0.0006 | 0.012 | 0.0007 |  |  | 
14 | COCOc1c(OC)c(-c2ccc(OS(C)(=O)=O)cc2)cc(OC)c1-c1ccc(OCc2ccccc2)c(O)c1 [Compound I-163] | <0.02 | <0.02 | <0.02 |  |  | 
15 | C/C=C\COc1ccc(-c2c(OC)cc(-c3ccc(O)cc3)c(OC)c2O)cc1O [Compound I-173] | <0.02 | <0.02 | <0.02 |  |  | 
16 | C=C/C=C\COc1ccc(-c2c(OC)cc(-c3ccc(O)cc3)c(OC)c2O)cc1O [Compound I-175] | <0.02 | <0.02 | 0.0294 |  |  | 
17 | COc1cc(-c2ccc(O)cc2)c(OC)c(O)c1-c1ccc(OCc2ccco2)c(O)c1 [Compound I-211] | <0.02 | <0.02 | <0.02 |  |  | 
18 | COc1cc(-c2c(OC)cc(-c3ccc(OS(C)(=O)=O)cc3)c(OC)c2OS(C)(=O)=O)ccc1OCC=C(C)C [Compound I-248] | <0.01 | 0.312 | <0.01 |  |  | 
19 | COc1cc(-c2ccc(N(C)C)cc2)c(OC)c(O)c1-c1ccc(OCC=C(C)C)c(O)c1 [Compound I-255] | <0.02 | <0.02 | <0.02 |  |  | 
20 | COc1cc(-c2ccc(N(C)C)cc2)c(OC)c(O)c1-c1ccc(OCc2ccc(C)cc2)c(O)c1 [Compound I-256] | <0.02 | 0.31 | 0.0287 |  |  | 
21 | COc1ccccc1-c1cc(OC)c(-c2ccc(OCC=C(C)C)c(O)c2)c(O)c1OC [Compound I-276] | 0.0018 | 0.2 | 0.0031 |  |  | 
22 | COc1cc(-c2ccc(O)cc2)c(OC)c(O)c1-c1ccc(OC/C=C(/C)CO)c(O)c1 [Compound I-299] | 0.00553 | 0.0136 | 0.00785 |  |  | 
23 | COc1cc(-c2ccc(N(C)C)cc2)c(OC)c(OS(C)(=O)=O)c1-c1ccc(OCc2ccccc2)c(O)c1 [Compound I-360] | <0.02 | 0.0998 | <0.02 |  |  | 
24 | COc1cc(-c2ccc(C(C)C)cc2)c(OC)c(OS(C)(=O)=O)c1-c1ccc(OCc2ccccc2)c(O)c1 [Compound I-361] | <0.02 | 0.124 | <0.02 |  |  | 
25 | COc1cc(-c2ccc(OS(C)(=O)=O)cc2)c(OC)c(OS(C)(=O)=O)c1-c1ccc(OS(=O)(=O)c2ccc(C)cc2)c(OS(C)(=O)=O)c1 [Compound I-395] |  |  |  | >1 | 0.001 to 0.01 | >1
26 | COc1cc(-c2ccc(OS(C)(=O)=O)cc2)c(OC)c(OS(C)(=O)=O)c1-c1ccc(OCc2ccc(-c3ccccc3)cc2)c(OS(C)(=O)=O)c1 [Compound I-403] |  |  |  | >1 | 0.013 (≈ 0.0172 µM) | >1
27 | COc1cc(-c2ccc(OCc3ccccc3)c(N)c2)c(OC)cc1-c1ccc(OS(C)(=O)=O)cc1 [Compound I-418] | 0.255 | >10 | 0.497 |  |  | 
28 | COc1cc(-c2c(OC)cc(-c3ccc(O)cc3)c(OC)c2CO)ccc1OCC=C(C)C [Compound I-513] | 0.00689 | 0.0618 | 0.0111 |  |  | 

— patent publication US7101915B1, “P-terphenyl compounds” (Shionogi & Co., Ltd., priority 1996, dated 2006)
